Among the test systems are UACC-257; UO-31; RPMI-8226; SNB-75; HCT-116; SK-OV-3; 786-0; HT-29; NCI-H226; RXF 393; U-251; M14; OVCAR-3; NCI-H522; CCRF-CEM; SNB-19; SF-295; KM12; SF-539; HCC 2998.
Holding throughout (assay): growth of human tumour cells (NCI), 48 h

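1) Cells in 96-well plates. 2) Compound, 48 h, 5 concentrations. 3) Linear interpolation between surrounding doses. 4) Unreached endpoint = highest concentration. GI50 = concentration required for 50% inhibition of growth.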 The source made the active and inactive calls. Rule as the data show it: active = GI50 up to about 1.1 µM and inactive = higher.

`C#CCn1c(=O)c(I)cn(/C(=C/C(=O)OCC)C(=O)OCC)c1=O`: the GI50 was 3.06 µM (inactive) in the test with UACC-257; 1.53 µM (inactive) with UO-31; 0.746 µM (active) in the test on RPMI-8226; 17.2 µM (inactive) with SNB-75; 1.85 µM (inactive) in the test with HCT-116; 17.9 µM (inactive) with SK-OV-3. In addition, the GI50 in the test on 786-0 was 1.63 µM (inactive); with HT-29, 12.6 µM (inactive); in the test with NCI-H226, 25.7 µM (inactive); with RXF 393 it was 3.61 µM (inactive); in the test on U-251, 16.6 µM (inactive); with M14 it was 1.78 µM (inactive). Further, the GI50 in the test on OVCAR-3 was 1.78 µM (inactive); with NCI-H522, 0.649 µM (active); in the test on CCRF-CEM, 3.53 µM (inactive); with SNB-19, 18.3 µM (inactive); in the test with SF-295, 39.7 µM (inactive); in the test with KM12, 18 µM (inactive). Moreover, the GI50 in the test on SF-539 was 7.21 µM (inactive).

For the compound `CN(CCN1C(=O)c2cccc3cccc(c23)C1=O)CCN1C(=O)c2cccc3cccc(c23)C1=O`, the GI50 with UACC-257 is 60.1 µM (inactive); with UO-31, 5.81 µM (inactive); in the test with SNB-75 it was 19.2 µM (inactive); in the test with HCT-116 it was 5.98 µM (inactive); in the test with SK-OV-3 it was 4.29 µM (inactive); with 786-0, 9.02 µM (inactive). Further, the GI50 in the test on HT-29 is > 100 µM (inactive); with NCI-H226 it was 17.5 µM (inactive); with RXF 393, 23.3 µM (inactive); with U-251, 12.2 µM (inactive); in the test on M14, > 100 µM (inactive); in the test on OVCAR-3, 21.2 µM (inactive). The GI50 with NCI-H522 is 13.2 µM (inactive); in the test on CCRF-CEM, 2.18 µM (inactive); with SNB-19, 3.17 µM (inactive); with SF-295, 12.8 µM (inactive); with KM12 it was > 100 µM (inactive); with SF-539, 32.7 µM (inactive).

Turning to `COc1ccc(C(c2cc(OC)c(OC)c(OC)c2)N2C(=O)CCC2C(=O)O)cc1` (stereo not given), the GI50 in the test on HCC 2998 was 50.2 µM (inactive); with UACC-257, > 100 µM (inactive); in the test with UO-31, 56.4 µM (inactive); in the test with RPMI-8226 it was 49.8 µM (inactive); in the test with SNB-75, 59 µM (inactive); in the test on HCT-116, 35.5 µM (inactive). Further, the GI50 was 60.1 µM (inactive) in the test with SK-OV-3; 73.1 µM (inactive) with 786-0; 35.6 µM (inactive) with HT-29; 74.3 µM (inactive) in the test with NCI-H226; 38.3 µM (inactive) in the test on U-251; 38.3 µM (inactive) in the test on M14. Moreover, the GI50 in the test with OVCAR-3 was 33.8 µM (inactive); in the test on NCI-H522, 52.1 µM (inactive); in the test on CCRF-CEM, 38.8 µM (inactive); with SNB-19, 44.9 µM (inactive); in the test on SF-295 it was 24.3 µM (inactive); with KM12, 35.6 µM (inactive). In the test on SF-539, the GI50 is 21.2 µM (inactive).

For `CC1=C2CC(C)(C)CC(=O)C2(C)CCC1=O` (stereo not given), the GI50 in the test on HCC 2998 was > 100 µM (inactive); in the test on UACC-257 it was > 100 µM (inactive); in the test with UO-31, > 100 µM (inactive); in the test with RPMI-8226, 3.02 µM (inactive); in the test with SNB-75, > 100 µM (inactive); with HCT-116 it was > 100 µM (inactive). Also, the GI50 with SK-OV-3, with 786-0, with HT-29, with NCI-H226, in the test on U-251 and with M14 was > 100 µM (inactive) each time. Besides, the GI50 in the test on NCI-H522, in the test with CCRF-CEM, with SNB-19, with SF-295, with KM12 and with SF-539 was > 100 µM (inactive) throughout.

On to `COC(=O)CNC(=O)C(Cc1ccccc1)NC(=O)c1ccc(-c2ccc(Cl)cc2Cl)o1` (stereo not given), for which the GI50 in the test on UACC-257 is 17.8 µM (inactive); with UO-31, 52.6 µM (inactive); in the test on RPMI-8226 it was 12.3 µM (inactive); in the test on SNB-75 it was 30.9 µM (inactive); in the test with HCT-116, 14.8 µM (inactive); with SK-OV-3 it was 24.9 µM (inactive). Moreover, the GI50 was 16.9 µM (inactive) with 786-0; 14.4 µM (inactive) in the test with HT-29; 48.4 µM (inactive) in the test with NCI-H226; 18.4 µM (inactive) in the test on RXF 393; 28.5 µM (inactive) in the test on U-251; 30.9 µM (inactive) in the test with M14. Besides, the GI50 with OVCAR-3 is 22.4 µM (inactive); in the test with NCI-H522 it was 13.4 µM (inactive); in the test on CCRF-CEM, 10.1 µM (inactive); with SNB-19, 35.3 µM (inactive); in the test on SF-295, 18.7 µM (inactive); in the test on KM12, 24.4 µM (inactive). Besides, in the test on SF-539, the GI50 was 36.3 µM (inactive).

Consider `O=C(O)CCC1(CCC(=O)O)CCCCCCCCC(CCC(=O)O)(CCC(=O)O)C(=O)C1=O`, for which the GI50 is > 100 µM (inactive) in the test with HCC 2998; > 100 µM (inactive) in the test with UACC-257; < 0.01 µM (active) with RPMI-8226; > 100 µM (inactive) in the test on SNB-75; > 100 µM (inactive) with HCT-116; > 100 µM (inactive) in the test on SK-OV-3. Also, the GI50 in the test on 786-0, in the test on HT-29, in the test on NCI-H226, with U-251, in the test with M14 and in the test with OVCAR-3 was > 100 µM (inactive) in each case. For the same compound, the GI50 with NCI-H522, in the test with SNB-19, in the test with SF-295, in the test with KM12 and with SF-539 was > 100 µM (inactive) in each case.

Take `CCOC(=O)c1cnc2[nH]c(=O)c3ccccc3n2c1=O`: the GI50 in the test on UACC-257, with UO-31, in the test with RPMI-8226, in the test on SNB-75, with HCT-116 and in the test with SK-OV-3 was > 100 µM (inactive) each time. The GI50 in the test on 786-0, with HT-29, with NCI-H226, with RXF 393, with U-251 and in the test with M14 was > 100 µM (inactive) throughout. Also, the GI50 in the test with OVCAR-3, with NCI-H522, in the test on CCRF-CEM, in the test on SNB-19, with SF-295 and in the test with KM12 was > 100 µM (inactive) throughout. Also, the GI50 in the test with SF-539 is > 100 µM (inactive).

Regarding `C(=N\c1ccc2c(c1)Cc1ccccc1-2)/c1ccccn1`, the GI50 with UACC-257 was 27.1 µM (inactive); in the test on UO-31, > 100 µM (inactive); with RPMI-8226, > 10 µM (inactive); with SNB-75, 67.6 µM (inactive); in the test on HCT-116 it was 30.5 µM (inactive); in the test on 786-0, 34.8 µM (inactive). Besides, the GI50 in the test with HT-29 is 63.1 µM (inactive); with NCI-H226, > 100 µM (inactive); with RXF 393 it was > 100 µM (inactive); in the test on U-251, 63.1 µM (inactive); with M14, > 100 µM (inactive); in the test on OVCAR-3 it was 61.7 µM (inactive). The GI50 in the test with NCI-H522 was 26.7 µM (inactive); in the test with CCRF-CEM it was 23 µM (inactive); in the test with SNB-19, > 100 µM (inactive); in the test on SF-295 it was > 100 µM (inactive); in the test with KM12, 89.3 µM (inactive).

For `CCN(CC)CCCCC1CCN(CC(=O)N2c3ccccc3NC(=O)c3ccccc32)CC1`, the GI50 in the test on HCC 2998 is > 100 µM (inactive); with UACC-257, 48.1 µM (inactive); in the test with UO-31 it was > 100 µM (inactive); in the test on RPMI-8226, > 100 µM (inactive); in the test with SNB-75, > 100 µM (inactive); in the test on HCT-116 it was > 100 µM (inactive). For the same compound, the GI50 in the test on SK-OV-3 is > 100 µM (inactive); with 786-0 it was > 100 µM (inactive); in the test with HT-29 it was 46.7 µM (inactive); in the test with NCI-H226, > 100 µM (inactive); with M14, 19.4 µM (inactive); in the test with OVCAR-3, > 100 µM (inactive). Moreover, the GI50 is > 100 µM (inactive) in the test with NCI-H522; 64.9 µM (inactive) in the test on CCRF-CEM; > 100 µM (inactive) with SNB-19; > 100 µM (inactive) in the test with SF-295; > 100 µM (inactive) in the test with KM12; > 100 µM (inactive) with SF-539.

Turning to `CCN(CC)CCCOc1cc2c(cc1OC)C(=O)N1CCC[C@H]1C=N2`, the GI50 is 53.7 µM (inactive) in the test on UACC-257; 39.9 µM (inactive) with UO-31; 21.1 µM (inactive) in the test with RPMI-8226; 32.4 µM (inactive) with HCT-116; 39.7 µM (inactive) with SK-OV-3; 30.5 µM (inactive) with 786-0. Further, the GI50 in the test on HT-29 was 17.8 µM (inactive); in the test with NCI-H226, 24.4 µM (inactive); in the test on RXF 393, 25.8 µM (inactive); in the test on U-251, 26.4 µM (inactive); with M14 it was 30.2 µM (inactive); in the test with OVCAR-3, 24.2 µM (inactive). The GI50 in the test on NCI-H522 was 11.4 µM (inactive); in the test on CCRF-CEM, 33.2 µM (inactive); with SNB-19, 49.1 µM (inactive); with SF-295 it was 28.8 µM (inactive); in the test on KM12 it was 20 µM (inactive); in the test on SF-539, 42.7 µM (inactive).

For `C/C=C1/C[C@@H](C)[C@@](C)(O)C(=O)OCC2=CC[N+]3([O-])CC[C@@H](OC1=O)[C@@H]23` (stereo not given in full) [SENECIONINE N-OXIDE], the GI50 in the test with HCC 2998, in the test with UACC-257, in the test on UO-31, in the test with SNB-75, with HCT-116 and with SK-OV-3 was > 100 µM (inactive) throughout. For the same compound, the GI50 in the test with 786-0, in the test with HT-29, in the test on NCI-H226, with U-251, in the test on M14 and with OVCAR-3 was > 100 µM (inactive) in each case. The GI50 with NCI-H522, in the test on CCRF-CEM, in the test with SNB-19, with SF-295, in the test on KM12 and in the test with SF-539 was > 100 µM (inactive) in each case.

(Values after ChEMBL document CHEMBL1201862, “PubChem BioAssay data set” (2004).)
